Experimental data: patent US20110312986A1, “Composition and Method for Treating Overactive Bladder” (ALLERGAN, INC., priority 2010, published 2011)
Like-named read-outs stand apart in the source and are kept apart here.

How the values were obtained:
clinical = details: both, human, plasma, oral
[1] = Steady-state plasma pharmacokinetics of Trospium in subjects 65 years or older with overactive bladder symptoms (Example 1); type: in vivo, human; details: Day 10, 60 mg Trospium daily for 10 days
Experimental: (§1) A single-center, single-blind, randomized, placebo-controlled, parallel group study was conducted to evaluate whether Trospium permeates across the human blood-brain barrier and whether Trospium could cause cognitive impairment.

[2] = Trospium in cerebrospinal fluid: permeation across the blood-brain barrier (Example 1); type: in vivo, human
Experimental: as §1
For cerebrospinal fluid sampling at each pharmacokinetics time point, about 2.5 mL of cerebral spinal fluid was collected on Day 10 at 0 hr, 2 hr, 5 hr, 7 hr, 12 hr, and 24 hr post dose.

[3] = Neuropsychology testing: HVLT-R and BVMT-R, reliable change index (Example 1); type: in vivo, human
Experimental: as §1
For neuropsychology testing, each subject underwent the Hopkins Verbal Learning Test-Revised (HVLT-R) and the Brief Visuospatial Memory Test-Revised (BVMT-R) on Days 0, 9, and 10. Pre-dose (Day 0) and post-dose (Day 10) results on the neuropsychology tests were compared using a reliable change index to assess a change in learning of memory.

[4] = through tubular secretion and glomerular filtration; cited from earlier work
[5] = for Trospium Ae,0-24 (amount excreted unchanged in urine) / Trospium Ae,0-24/Dose (percentage of dose excreted in urine) / Trospium CLss/F (oral clearance) / Tmax: steady state; for Tmax: Trospium Tmax
[6] = metabolite of Trospium; cited from earlier work
[7] = 60 mg Trospium with 500 mg Metformin
[8] = Glucophage/Sanctura XR regime (co-administered with 500 mg Metformin twice daily), N = 43
[9] = Trospium with Metformin versus Trospium alone
[10] = both, human, plasma, oral, 60 mg
[11] = column headed Glucophage ® Dosage Regime, N = 44, 60 mg Trospium daily for 10 days alone

For `CN(C)C(=N)N=C(N)N` [Metformin, N,N-dimethylimidodicarbonimidic diamide], which concentration at 11 hr (clinical) is on record?
Its concentration at 11 hr is 155 ng/mL.

And the concentration at 15 hr (clinical)?
The concentration at 15 hr was 83 ng/mL.

With `O=C(OC1CC2CCC(C1)[N+]21CCCC1)C(O)(c1ccccc1)c1ccccc1.[Cl-]` (stereo not shown) [Trospium, 3-(2-hydroxy-2,2-diphenylacetoxy) spiro[bicyclo[3.2.1]octane-8,1′-pyrrolidin]-1′-ium chloride] as the compound, how does the “Trospium concentration in plasma” value ([1]; 0 hr post dose) read?
Its value is 522 pg/mL.

What about the “Trospium concentration in plasma” value ([1]; 5 hr post dose) of the same compound?
The value was 925 pg/mL.

What about the “Trospium concentration in plasma” value ([1]; 24 hr post dose) of the same compound?
The value was 649 pg/mL.

And the “Time of peak plasma concentration post-dosing” value [1]?
The value was 5 h.

What about the AUC(0-t) ([1]; both sexes, human, plasma, linear trapezoidal rule, read-out: AUC0-24, steady state) of the same compound?
Its AUC(0-t) is 18500 ng·h/mL.

And the Cmax ([1]; both sexes, human, plasma, read-out: Peak plasma concentration (Cmax))?
The Cmax was 0.925 ng/mL.

And the “Trospium concentration in cerebrospinal fluid” value ([2]; 0 hr post dose, Day 10, 60 mg Trospium daily for 10 days)?
Its value is less than 40 pg/mL.

And the “Trospium concentration in cerebrospinal fluid” value ([2]; 5 hr post dose, Day 10, 60 mg Trospium daily for 10 days)?
Its value is less than 40 pg/mL.

And the “Trospium concentration in cerebrospinal fluid” value ([2]; 24 hr post dose, Day 10, 60 mg Trospium daily for 10 days)?
Its value is less than 40 pg/mL.

And the “Trospium in cerebrospinal fluid, all 72 samples” value ([2]; Day 10, 0 to 24 hr post dose, detectable range 40 pg/mL)?
Its value is less than 40 pg/mL.

And the concentration at 5 h ([2]; both sexes, human, cerebrospinal fluid, 5 hr post dose, Day 10, 60 mg Trospium daily for 10 days)?
Its concentration at 5 h is less than 0.04 ng/mL.

And the “Crossing of the blood-brain barrier” value ([2]; conclusion from the cerebrospinal fluid levels)?
The value was “does not cross the blood-brain barrier”.

What about the “Net drug effect on cognition (HVLT-R, BVMT-R)” value ([3]; Day 0 versus Day 10, one subject deteriorated on total recall in both tests) of the same compound?
The value was “no meaningful net drug effect on cognition”.

And the “Cognitive impairment or memory loss” value ([3]; conclusion from the neuropsychology testing)?
Its value is “does not cause cognitive impairment or memory loss”.

What about the “Share of the absorbed dose excreted unchanged in the urine” value [4] of the same compound?
Its value is 60%.

What about the “Reduction of steady-state AUC0-24 of Trospium by co-administered Metformin” value [5, 7] of the same compound?
The value was roughly 29%.

And the “Reduction of steady-state Cmax of Trospium by co-administered Metformin” value [5, 7]?
The value was “approximately 34%”.

And the “Trospium Ae,0-24 (amount excreted unchanged in urine)” value [5, 8]?
Its value is 0.281 ± 0.156 mg.

And the “Trospium Ae,0-24/Dose (percentage of dose excreted in urine)” value [5, 8]?
The value was 0.468 ± 0.260%.

And the “Trospium CLss/F (oral clearance)” value [5, 8]?
The value was 4830 ± 2320 L/h.

What about the “Percentage Ratio and 90% CI of the Geometric Mean of AUC0-24 (Combination/Alone)” value [5, 9] of the same compound?
Its value is 70.8 (66.2-75.7) %.

What about the “Percentage Ratio and 90% CI of the Geometric Mean of Cmax (Combination/Alone)” value [5, 9] of the same compound?
The value was 66.3 (61.0-72.0) %.

And the AUC(0-t) [5, 10]?
Its AUC(0-t) is 22.7 ng·h/mL.

What about the Cmax [5, 10] of the same compound?
Its Cmax is 1.87 ng/mL.

What about the concentration at 0 hr [5, 10] of the same compound?
The concentration at 0 hr was 0.676 ng/mL.

And the concentration at 1 hr [5, 10]?
Its concentration at 1 hr is 0.831 ng/mL.

And the concentration at 2 hr [5, 10]?
Its concentration at 2 hr is 1.36 ng/mL.

What about the concentration at 3 hr [5, 10] of the same compound?
The concentration at 3 hr was 1.57 ng/mL.

And the concentration at 4 hr [5, 10]?
Its concentration at 4 hr is 1.54 ng/mL.

What about the concentration at 5 hr [5, 10] of the same compound?
Its concentration at 5 hr is 1.53 ng/mL.

And the concentration at 6 hr [5, 10]?
Its concentration at 6 hr is 1.66 ng/mL.

What about the concentration at 8 hr [5, 10] of the same compound?
Its concentration at 8 hr is 1.12 ng/mL.

What about the concentration at 10 hr [5, 10] of the same compound?
Its concentration at 10 hr is 0.878 ng/mL.

What about the concentration at 12 hr [5, 10] of the same compound?
Its concentration at 12 hr is 0.781 ng/mL.

And the concentration at 16 hr [5, 10]?
Its concentration at 16 hr is 0.676 ng/mL.

And the concentration at 24 hr [5, 10]?
The concentration at 24 hr was 0.655 ng/mL.

What about the Tmax ([5]; both, human, plasma, oral, 60 mg, column headed Glucophage ® Dosage Regime, N = 44, 60 mg Trospium daily for 10 days alone) of the same compound?
Its Tmax is roughly 4.42 h.

What about the Tmax ([5]; both, human, plasma, oral, Glucophage/Sanctura XR regime (co-administered with 500 mg Metformin twice daily), N = 43) of the same compound?
Its Tmax is roughly 4 h.

What about the CL renal ([5]; both, human, urine and plasma, oral, 60 mg) of the same compound?
Its CL renal is 307 mL/min.

What about the “Trospium Ae,0-24 (amount excreted unchanged in urine)” value [5, 11] of the same compound?
The value was 0.400 ± 0.247 mg.

What about the “Trospium Ae,0-24/Dose (percentage of dose excreted in urine)” value [5, 11] of the same compound?
Its value is 0.667 ± 0.411%.

And the “Trospium CLss/F (oral clearance)” value [5, 11]?
Its value is 3510 ± 1920 L/h.

And the “Reduction in percentage of Trospium dose excreted in urine on co-administration of Metformin” value ([5]; p value<0.0001)?
The value was 30%.

With `OC1C[C@H]2CC[C@@H](C1)[N+]21CCCC1` (stereo partly shown) [azoniaspironortropanol] as the compound, how does the “Pharmacological activity of the metabolite” value [6] read?
Its value is “pharmacologically inactive”.
